According to US6420330B1, “Use of quaternary carboxylic acid alkanolamine ester salts as microbicide agents” (Cognis Deutschland GmbH, priority 1997, dated 2002):

How the values were obtained:
Assay type in all cases: cell-based
[1] = test system: Enterococcus faecium; assay: DGHM suspension test, other bacteria and fungi
Procedure: (§1) The effectiveness of the compound to be tested was determined by the suspension test in accordance with the guidelines of the Deutsche Gesellschaft for Hygiene and Mikrobiologie (DGHM). Test solutions containing quatemary carboxylic acid alkanolamine ester salts in the quantities shown in the Tables of 50, 100, 200, 400 and 800 mg/l were prepared using water with a hardness of 17° dH and optionally isopropanol. At room temperatures, quantities of 0.1 ml test germ suspension were pipetted into test tubes containing 10 ml of the test solutions described above and mixed. After various contact times of 5, 15, 30 and 60 minutes, 1 ml of material was taken from the test tubes by pipette and transferred to 9 ml inactivator solution (inactivators: 3.0% Tween, 0.3% lecithin, 0.1% histidine). After in activation for at least 5 and at most 30 minutes, the living germ count was determined by plating out onto casein peptone-soybean flour peptone (CaSo)-agar plates. Using a spiral plater, the inactivating mixture was directly plated out onto CaSo-agar. The samples were incubated for 24 to 72 hours at 37° C. and macroscopically evaluated for growth. The destruction time or the residual germ count was determined in this way. The germ count of an unchallenged water control is related to the germ count of the inactivated test solution taking the dilution into account. The higher the value, the better the microbicidal effect. The symbol < means that the logarithmic reductuon factor is below the indicated value or, in the case of the symbol >, above the indicated value. The abbreviation CU stands for “concentration used”. Methyl triethanolammonium dioctanoic acid ester methosulfate was tested as in A) against the bacteria

[2] = test system: Escherichia coli; assay: DGHM suspension test, other bacteria and fungi
Procedure: as §1

[3] = test system: Microsporum gypseum; assay: DGHM suspension test, other bacteria and fungi
Procedure: as §1

[4] = test system: Salmonella enteritidis; assay: DGHM suspension test, other bacteria and fungi
Procedure: as §1

[5] = test system: Trichophyton mentagrophytes; assay: DGHM suspension test, other bacteria and fungi
Procedure: as §1

[6] = test system: Candida albicans ATCC 10231; assay: DGHM suspension test, microbicidal activity
Summary of the method: (§2)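 DGHM suspension test at room temperature: 0.1 ml germ suspension into 10 ml test solution (50–800 mg/l in 17° dH water, optionally isopropanol). After 5, 15, 30 and 60 minutes contact, samples inactivated (Tween/lecithin/histidine), plated on CaSo-agar, incubated 24–72 hours at 37° C. Log reduction versus unchallenged water control.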

[7] = test system: Pseudomonas aeruginosa ATCC 15442; assay: DGHM suspension test, microbicidal activity
Summary of the method: as §2

[8] = test system: Staphylococcus aureus ATCC 6538; assay: DGHM suspension test, microbicidal activity
Summary of the method: as §2

[9] = CU 50 mg/l, contact time 5 mins.
[10] = CU 50 mg/l, contact time 15 mins.
[11] = CU 50 mg/l, contact time 30 mins.
[12] = CU 50 mg/l, contact time 60 mins.
[13] = CU 100 mg/l, contact time 5 mins.
[14] = CU 100 mg/l, contact time 15 mins.
[15] = CU 100 mg/l, contact time 30 mins.
[16] = CU 100 mg/l, contact time 60 mins.
[17] = CU 200 mg/l, contact time 5 mins.
[18] = CU 200 mg/l, contact time 15 mins.
[19] = CU 200 mg/l, contact time 30 mins.
[20] = CU 200 mg/l, contact time 60 mins.
[21] = CU 400 mg/l, contact time 5 mins.
[22] = CU 400 mg/l, contact time 15 mins.
[23] = CU 400 mg/l, contact time 30 mins.
[24] = CU 400 mg/l, contact time 60 mins.
[25] = CU 800 mg/l, contact time 5 mins.
[26] = CU 800 mg/l, contact time 15 mins.
[27] = CU 800 mg/l, contact time 30 mins.
[28] = CU 800 mg/l, contact time 60 mins.

## CCCCCCCC(=O)OCC[N+](C)(CCO)CCOC(=O)CCCCCCC.COS(=O)(=O)[O-] [Example 11, Methyl triethanolammonium dioctanoic acid ester methosulfate]
[1]; 50 ppm, 5 Mins.
  logarithmic reduction rate: >6.3
[1]; 50 ppm, 15 Mins.
  logarithmic reduction rate: >5.88
[1]; 50 ppm, 60 Mins.
  logarithmic reduction rate: >5.96
[1]; 100 ppm, 5 Mins.
  logarithmic reduction rate: >6.3
[1]; 100 ppm, 15 Mins.
  logarithmic reduction rate: >5.88
[1]; 100 ppm, 60 Mins.
  logarithmic reduction rate: >5.96
[1]; 200 ppm, 5 Mins.
  logarithmic reduction rate: >6.3
[1]; 200 ppm, 15 Mins.
  logarithmic reduction rate: >5.88
[1]; 200 ppm, 60 Mins.
  logarithmic reduction rate: >5.96
[1]; 400 ppm, 5 Mins.
  logarithmic reduction rate: >6.3
[1]; 400 ppm, 15 Mins.
  logarithmic reduction rate: >5.88
[1]; 400 ppm, 60 Mins.
  logarithmic reduction rate: >5.96
[2]; 50 ppm, 5 Mins.
  logarithmic reduction rate: 4.12
[2]; 50 ppm, 15 Mins.
  logarithmic reduction rate: >5.62
[2]; 50 ppm, 60 Mins.
  logarithmic reduction rate: >5.76
[2]; 100 ppm, 5 Mins.
  logarithmic reduction rate: >5.58
[2]; 100 ppm, 15 Mins.
  logarithmic reduction rate: >5.62
[2]; 100 ppm, 60 Mins.
  logarithmic reduction rate: >5.76
[2]; 200 ppm, 5 Mins.
  logarithmic reduction rate: >5.58
[2]; 200 ppm, 15 Mins.
  logarithmic reduction rate: >5.62
[2]; 200 ppm, 60 Mins.
  logarithmic reduction rate: >5.76
[2]; 400 ppm, 5 Mins.
  logarithmic reduction rate: >5.58
[2]; 400 ppm, 15 Mins.
  logarithmic reduction rate: >5.62
[2]; 400 ppm, 60 Mins.
  logarithmic reduction rate: >5.76
[3]; 50 ppm, 5 Mins.
  logarithmic reduction rate: >3.52
[3]; 50 ppm, 15 Mins.
  logarithmic reduction rate: >3.58
[3]; 50 ppm, 60 Mins.
  logarithmic reduction rate: >3.62
[3]; 100 ppm, 5 Mins.
  logarithmic reduction rate: >3.52
[3]; 100 ppm, 15 Mins.
  logarithmic reduction rate: >3.58
[3]; 100 ppm, 60 Mins.
  logarithmic reduction rate: >3.62
[3]; 200 ppm, 5 Mins.
  logarithmic reduction rate: >3.52
[3]; 200 ppm, 15 Mins.
  logarithmic reduction rate: >3.58
[3]; 200 ppm, 60 Mins.
  logarithmic reduction rate: >3.62
[3]; 400 ppm, 5 Mins.
  logarithmic reduction rate: >3.52
[3]; 400 ppm, 15 Mins.
  logarithmic reduction rate: >3.58
[3]; 400 ppm, 60 Mins.
  logarithmic reduction rate: >3.62
[3]; concentration of 50 mg/l, shortest contact time
  killing of the fungus Microsporum gypseum: almost completely killed off
[4]; 50 ppm, 5 Mins.
  logarithmic reduction rate: <1.8
[4]; 50 ppm, 15 Mins.
  logarithmic reduction rate: 3.29
[4]; 50 ppm, 60 Mins.
  logarithmic reduction rate: 3.67
[4]; 100 ppm, 5 Mins.
  logarithmic reduction rate: 3.96
[4]; 100 ppm, 15 Mins.
  logarithmic reduction rate: 5.12
[4]; 100 ppm, 60 Mins.
  logarithmic reduction rate: >5.76
[4]; 200 ppm, 5 Mins.
  logarithmic reduction rate: 4.88
[4]; 200 ppm, 15 Mins.
  logarithmic reduction rate: >5.77
[4]; 200 ppm, 60 Mins.
  logarithmic reduction rate: >5.76
[4]; 400 ppm, 5 Mins.
  logarithmic reduction rate: >5.8
[4]; 400 ppm, 15 Mins.
  logarithmic reduction rate: >5.72
[4]; 400 ppm, 60 Mins.
  logarithmic reduction rate: >5.76
[5]; 50 ppm, 5 Mins.
  logarithmic reduction rate: 0.34
[5]; 50 ppm, 15 Mins.
  logarithmic reduction rate: 0.95
[5]; 50 ppm, 60 Mins.
  logarithmic reduction rate: 2.04
[5]; 100 ppm, 5 Mins.
  logarithmic reduction rate: 0.38
[5]; 100 ppm, 15 Mins.
  logarithmic reduction rate: 0.95
[5]; 100 ppm, 60 Mins.
  logarithmic reduction rate: 2.05
[5]; 200 ppm, 5 Mins.
  logarithmic reduction rate: 0.28
[5]; 200 ppm, 15 Mins.
  logarithmic reduction rate: 0.92
[5]; 200 ppm, 60 Mins.
  logarithmic reduction rate: 2.16
[5]; 400 ppm, 5 Mins.
  logarithmic reduction rate: 0.35
[5]; 400 ppm, 15 Mins.
  logarithmic reduction rate: 0.89
[5]; 400 ppm, 60 Mins.
  logarithmic reduction rate: 2.29
[5]; long contact time (60 minutes)
  destruction of Trichophyton mentagrophytes: around 2 powers of ten

## trimethyl ethanolammonium coconut fatty acid ester methosulfate [Example 4]
[6]; [9]
  logarithmic reduction factor: <0.80
[6]; [10]
  logarithmic reduction factor: <0.79
[6]; [11]
  logarithmic reduction factor: 0.91
[6]; [12]
  logarithmic reduction factor: 1.40
[6]; [13]
  logarithmic reduction factor: 1.19
[6]; [14]
  logarithmic reduction factor: 3.01
[6]; [15]
  logarithmic reduction factor: >4.80
[6]; [16]
  logarithmic reduction factor: >5.05
[6]; [17]
  logarithmic reduction factor: 3.43
[6]; [18]
  logarithmic reduction factor: >4.79
[6]; [19]
  logarithmic reduction factor: >4.80
[6]; [20]
  logarithmic reduction factor: >5.05
[6]; [21]
  logarithmic reduction factor: >4.80
[6]; [22]
  logarithmic reduction factor: >4.79
[6]; [23]
  logarithmic reduction factor: >4.80
[6]; [24]
  logarithmic reduction factor: >5.05
[6]; [25]
  logarithmic reduction factor: >4.80
[6]; [26]
  logarithmic reduction factor: >4.79
[6]; [27]
  logarithmic reduction factor: >4.80
[6]; [28]
  logarithmic reduction factor: >5.05
[7]; [9]
  logarithmic reduction factor: <1.51
[7]; [10]
  logarithmic reduction factor: <1.66
[7]; [11]
  logarithmic reduction factor: <1.46
[7]; [12]
  logarithmic reduction factor: <1.47
[7]; [13]
  logarithmic reduction factor: <1.51
[7]; [14]
  logarithmic reduction factor: <1.66
[7]; [15]
  logarithmic reduction factor: <1.46
[7]; [16]
  logarithmic reduction factor: <1.47
[7]; [17]
  logarithmic reduction factor: <1.51
[7]; [18]
  logarithmic reduction factor: <1.66
[7]; [19]
  logarithmic reduction factor: <1.46
[7]; [20]
  logarithmic reduction factor: <3.35
[7]; [21]
  logarithmic reduction factor: <1.51
[7]; [22]
  logarithmic reduction factor: 3.9
[7]; [23]
  logarithmic reduction factor: >5.66
[7]; [24]
  logarithmic reduction factor: >5.47
[7]; [25]
  logarithmic reduction factor: 4.02
[7]; [26]
  logarithmic reduction factor: >5.66
[7]; [27]
  logarithmic reduction factor: >5.66
[7]; [28]
  logarithmic reduction factor: >5.47
[8]; [9]
  logarithmic reduction factor: <1.51
[8]; [10]
  logarithmic reduction factor: <1.36
[8]; [11]
  logarithmic reduction factor: <1.38
[8]; [12]
  logarithmic reduction factor: 1.94
[8]; [13]
  logarithmic reduction factor: <1.51
[8]; [14]
  logarithmic reduction factor: 1.78
[8]; [15]
  logarithmic reduction factor: 3.03
[8]; [16]
  logarithmic reduction factor: 4.02
[8]; [17]
  logarithmic reduction factor: <1.51
[8]; [18]
  logarithmic reduction factor: 3.4
[8]; [19]
  logarithmic reduction factor: 4.38
[8]; [20]
  logarithmic reduction factor: >5.26
[8]; [21]
  logarithmic reduction factor: 2.33
[8]; [22]
  logarithmic reduction factor: 4.14
[8]; [23]
  logarithmic reduction factor: >5.38
[8]; [24]
  logarithmic reduction factor: >5.26
[8]; [25]
  logarithmic reduction factor: 3.12
[8]; [26]
  logarithmic reduction factor: >5.36
[8]; [27]
  logarithmic reduction factor: >5.38
[8]; [28]
  logarithmic reduction factor: >5.26
